“Also recorded” adds a separate entry of the source.
Experiments:
[1] = test system: B/CMBA.Ov murine ovarian epithelial cells; assay: Annexin V/PI cell death analysis of B/CMBA.Ov cells; type: cell-based; settings: 5 μM, 24 hours, vs vehicle
Procedure: Murine (ID8) or human (OVCAR5) ovarian tumor cells were treated with vehicle or a chemotherapeutic agent (e.g., cisplatin, carboplatin, or paclitaxel) as described. B/CMBA.Ov murine ovarian epithelial cells were treated with vehicle or PTUPB (1 or 5 μM) for 24 hours. The floating population (e.g., dead cells or “debris”) was collected, and the remaining adhered cells were trypsinized and combined with the dead cells. RAW264.7 murine macrophages were treated with vehicle or PTUPB (5 μM) for 24 hours. The floating population was collected and the remaining adhered cells were detached using a cell scraper (Corning Inc., Corning, NY) and combined with the dead cells. Cells were counted via hemocytometer, pelleted, and resuspended in PBS at 1×10^6 cells/mL. Next, 2×10^5 cells were stained with annexin V and propidium iodide (PI) according to FITC Annexin V/Dead Cell Apoptosis Kit protocol (Life Technologies, Carlsbad, CA). Staining was assessed using the BD LSR Fortessa (BD Biosciences, San Jose, CA) at the Dana-Farber Cancer Institute Jimmy Fund Flow Cytometry Core, and analyzed using FlowJo software (Tree Star Inc., Ashland, OR). Experiments were performed three times with similar results.

[2] = test system: debris-stimulated orthotopic ovarian tumor (ID8); assay: Debris-stimulated orthotopic ID8 ovarian tumor model; type: in vivo, mice; settings: PTUPB 30 mg/kg/day
Procedure: (§1) All animal studies were reviewed and approved by the Animal Care and Use Committee of Beth Israel Deaconess Medical Center, Boston, MA Mice were housed at a maximum of 5 animals per cage in a pathogen-free facility with unlimited access to sterile water and chow. Daily welfare evaluations and animal sacrifices were carried out according to the Committee guidelines. For murine injections, chemotherapy-generated murine (ID8) or human (OVCAR5) ovarian tumor cell debris was combined with ID8 or OVCAR5 living cells at equal volumes in PBS. Six-week-old female C57BL/6 (The Jackson Laboratory, Bar Harbor, ME) or SCID mice (Charles River, Cambridge, MA) were injected subcutaneously or intraperitoneally with 100 μL/mouse of ID8 or OVCAR5 cells, respectively. For orthotopic injections, 6-week-old C57BL/6 female mice were injected with 20 μL/mouse of matrigel (Becton Dickinson and Company, Franklin Lakes, NJ) mixed with paclitaxel-generated ID8 debris and/or ID8 living cells at a 1:1 (matrigel:cells) ratio directly into the right ovarian bursa. Systemic treatment with PTUPB (30 mg/kg/day) or control was administered via mini-osmotic pumps (Alzet Inc., Cupertino, CA) implanted into the peritoneum of the mice 4 weeks post-injection. Treatment ended 28 days after implantation of the pumps. […]

[3] = test system: RAW264.7 murine macrophages; type: cell-based; settings: 5 μM, 2 hours pre-treatment
ID8 tumor cells = assay: MTT proliferation assay; type: cell-based, murine; settings: 1-10 μM, 24 hours
Procedure: Cell Proliferation Kit 1 (MTT) (Roche, Basel, Switzerland) was used according to recommended protocol to quantify proliferation. ID8 cells were plated at 5×10^3 cells/well in 96-well plates with DMEM supplemented with 1% FBS and 1% GPS and incubated overnight. Cells were re-fed with DMEM supplemented with 1% FBS and 1% GPS and vehicle or PTUPB (1, 5, or 10 μM). After a 24 hour incubation at 37° C., 10 μL of MTT reagent was added to each well and incubated for 4 hours at 37° C. Next, 100 μL of solubilizing solution was added to each well and incubated overnight at 37° C. VersaMax microplate reader (Molecular Devices, San Jose, CA) was used to quantify the results of the assay. Absorbance readings were normalized to vehicle. Experiments were performed three times with similar results.

[4] = test system: primary peritoneal murine macrophages; type: cell-based; settings: RFU, percent increase above vehicle-treated macrophages
[5] = test system: RAW264.7 murine macrophages; assay: Cytokine arrays of RAW264.7 macrophages stimulated with gemcitabine-generated PancOH7 debris; type: cell-based; settings: 5 μM, 2 hours pre-treatment
Procedure: (A) Inflammatory and (B) angiogenic cytokine array of RAW264.7 murine macrophage conditioned media co-cultured with chemotherapy (gemcitabine)-generated murine pancreatic (PancOH7) tumor cell debris and pre-treated with vehicle or PTUPB (5 μM, 2 hours).
Inflammatory (FIG. 15A) and angiogenic (FIG. 15B) cytokine arrays of conditioned media from RAW264.7 macrophages treated with vehicle or PTUPB (5 uM) for 2 hours stimulated with gemcitabine-generated PancOH7 debris are shown in FIGS. 15A and 15B. “Cytokine storm” released by debris-stimulated macrophages is prevented by the dual COX-2/sEH inhibitor PTUPB.

[6] = test system: RAW 264.7 murine macrophages; assay: Inflammatory cytokine array of RAW264.7 macrophages stimulated with ethanol-generated MS-1 endothelial cell debris; type: cell-based; settings: 5 μM (combination 2.5 μM each), 2 hours pre-treatment
[7] = test system: intraperitoneal ovarian tumors (ID8); assay: In vivo cytokines (serum, ascites) in mice bearing intraperitoneal ID8 ovarian tumors
Procedure: In vivo cytokines (serum or ascites) or cytokines in conditioned medium of macrophages treated with PTUPB and exposed to paclitaxel- or carboplatin-generated debris, were assessed according to the protocols provided by Proteome Profiler Mouse Cytokine Array Kit Panel A, Proteome Profiler Mouse Angiogenesis Array Kit, or Proteome Profiler Human Cytokine Array Kit Panel A (R&D Systems, Inc., Minneapolis, MN). Array control allows for comparison between membranes. For in vivo analysis, n=2 mice/group (serum); n=1 mouse/group (ascites).
For quantitation of pro-inflammatory cytokines, serum or conditioned medium from macrophages treated with PTUPB and stimulated with paclitaxel-generated ID8 debris or from paclitaxel-generated ID8 debris alone without macrophages was used according to the protocols provided in each ELISA kit (R&D Systems, Minneapolis, MN).
as §1, with “post-injection.” for “post-injection. Treatment ended 28 days after implantation of the pumps.”

[8] = test system: human monocyte-derived macrophage; type: cell-based; settings: 5 μM, 2 hours

NS(=O)(=O)c1ccc(-n2nc(CCCNC(=O)Nc3ccc(C(F)(F)F)cc3)cc2-c2ccccc2)cc1 [PTUPB, 4-(5-phenyl-3-{3-[3-(4-trifluoromethyl-phenyl)-ureido]propyl}-pyrazol-1-yl) benzenesulfonamide]
induction of cell death of ovarian epithelial cells (B/CMBA.Ov) [1]: did not induce cell death
debris-stimulated orthotopic ovarian tumor growth [2]: suppressed debris-stimulated orthotopic ovarian tumor growth
survival compared to control, paclitaxel-generated debris orthotopic model ([2]; log-rank test=7.91, p=0.005): significantly prolonged survival
cytokine storm released by macrophages stimulated with aflatoxin B1-generated Hepa 1-6 debris [3]: prevents the aflatoxin B1-induced cytokine storm; also recorded: able to inhibit; also recorded: prevented
proliferation of ID8 tumor cells in vitro (ID8 tumor cells): inhibited proliferation
macrophage phagocytosis of aflatoxin B1-generated tumor cell debris, primary peritoneal murine macrophages [4]: stimulates macrophage phagocytosis
cytokine storm (inflammatory and angiogenic arrays) released by macrophages stimulated with gemcitabine-generated PancOH7 debris [5]: prevented
cytokine storm by ethanol-generated endothelial cell (MS-1) debris [6]: inhibited
serum levels of CXCL13/BCA-1 and SDF-1/CXCL12 ([7]; ID8-bearing mice administered systemic chemotherapy (carboplatin), PTUPB-treated vs control): reduced serum levels
ascites levels of PIGF-2, PTX-3, MMP9, CCL2/MCP-1, fractalkine/CX3CL1, angiopoietin-1 ([7]; intraperitoneal ID8 tumors, day 60 post-injection, vs control): decreased levels
pro-angiogenic factors serpin E1/PAI-1 and IGFBP1 in serum ([7]; mice i.p. injected with ID8 (1×10^6 living cells), day 60 post-injection, vs control): inhibited pro-angiogenic factors
cytokine storm induced by aflatoxin B1-generated HepG2 debris in human monocyte-derived macrophages [8]: inhibited

Source: US12485107B2, “Methods for the prevention or treatment of cytokine storm” (Beth Israel Deaconess Medical Center, Inc., priority 2019, dated 2025)
